Assay results reported in PubChem BioAssay AID250 (DTP/NCI, 2004).
Values joined by “and” are separate entries in the source; they are usually repeats but may differ in a detail not shown here. Identical values can stand only once. Toxic doses and inconclusive results are not listed.

Test system: BDF1 mice, L1210 leukemia sc, survival T/C
Experiment: NCI In Vivo Anticancer Drug Screen. Data for tumor model L1210 Leukemia (subcutaneous) in B6D2F1 (BDF1) mice
Conditions: endpoint: median survival time, higher = longer survival
Outline: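 Expressed as T/C: measurement in compound-treated, tumor-bearing mice relative to vehicle-treated control mice, based on survival or tumor size.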

O=NN(CCCl)C(=O)NCCCl
T/C (dose: 0.65 mg/kg/injection, schedule: Q01DX Z (sc), vehicle: methylcellulose (MC)): 115 % of control | T/C (dose: 0.75 mg/kg/injection, schedule: Q01DX009 (ip), vehicle: saline): 110 % of control | T/C (dose: 1.08 mg/kg/injection, schedule: Q## X Z (sc), vehicle: methylcellulose (MC)): 107 % of control | T/C (dose: 1.5 mg/kg/injection, schedule: Q01DX009 (ip), vehicle: saline): 120 % of control | T/C (dose: 1.8 mg/kg/injection, schedule: Q01DX Z (sc), vehicle: methylcellulose (MC)): 184 % of control | T/C (dose: 1.8 mg/kg/injection, schedule: Q07DX Z (sc), vehicle: methylcellulose (MC)): 107 % of control | T/C (dose: 1.8 mg/kg/injection, schedule: Q## X Z (sc), vehicle: methylcellulose (MC)): 115 % of control | T/C (dose: 3.0 mg/kg/injection, schedule: Q01DX001 (ip), vehicle: saline): 119 % of control | T/C (dose: 3.0 mg/kg/injection, schedule: Q01DX001 (iv), vehicle: saline): 123 % of control | T/C (dose: 3.0 mg/kg/injection, schedule: Q01DX009 (ip), vehicle: saline): 190 % of control | T/C (dose: 3.0 mg/kg/injection, schedule: Q01DX Z (oral), vehicle: saline): 205 % of control | T/C (dose: 3.0 mg/kg/injection, schedule: Q01DX Z (sc), vehicle: methylcellulose (MC)): 223 % of control | T/C (dose: 3.0 mg/kg/injection, schedule: Q07DX Z (sc), vehicle: methylcellulose (MC)): 115 % of control | T/C (dose: 3.0 mg/kg/injection, schedule: Q## X Z (sc), vehicle: methylcellulose (MC)): 119 % of control | T/C (dose: 3.0 mg/kg/injection, schedule: Q## X Z (sc), vehicle: saline): 123 % of control | T/C (dose: 5.0 mg/kg/injection, schedule: Q01DX001 (sc), vehicle: saline): 115 % of control | T/C (dose: 5.0 mg/kg/injection, schedule: Q01DX Z (oral), vehicle: saline): 521 % of control | T/C (dose: 5.0 mg/kg/injection, schedule: Q01DX Z (sc), vehicle: methylcellulose (MC)): 200 % of control | T/C (dose: 5.0 mg/kg/injection, schedule: Q07DX Z (sc), vehicle: saline): 120 % of control and 123 % of control | T/C (dose: 5.0 mg/kg/injection, schedule: Q## X Z (sc), vehicle: methylcellulose (MC)): 173 % of control | T/C (dose: 6.0 mg/kg/injection, schedule: Q01DX009 (ip), vehicle: saline): 210 % of control | T/C (dose: 8.4 mg/kg/injection, schedule: Q01DX001 (ip), vehicle: saline): 233 % of control | T/C (dose: 8.4 mg/kg/injection, schedule: Q01DX001 (iv), vehicle: saline): 247 % of control | T/C (dose: 8.4 mg/kg/injection, schedule: Q01DX Z (oral), vehicle: saline): 284 % of control | T/C (dose: 8.4 mg/kg/injection, schedule: Q01DX Z (sc), vehicle: methylcellulose (MC)): 188 % of control | T/C (dose: 8.4 mg/kg/injection, schedule: Q07DX Z (sc), vehicle: methylcellulose (MC)): 161 % of control | T/C (dose: 8.4 mg/kg/injection, schedule: Q07DX Z (sc), vehicle: other): 305 % of control | T/C (dose: 8.4 mg/kg/injection, schedule: Q07DX Z (sc), vehicle: saline): 161 % of control and 210 % of control and 252 % of control | T/C (dose: 8.4 mg/kg/injection, schedule: Q16DX002 (ip), vehicle: saline): 172 % of control | T/C (dose: 8.4 mg/kg/injection, schedule: Q## X Z (sc), vehicle: methylcellulose (MC)): 250 % of control | T/C (dose: 8.4 mg/kg/injection, schedule: Q## X Z (sc), vehicle: saline): 246 % of control | T/C (dose: 10.0 mg/kg/injection, schedule: Q01DX001 (sc), vehicle: methylcellulose (MC)): 255 % of control | T/C (dose: 10.0 mg/kg/injection, schedule: Q01DX001 (sc), vehicle: saline): 185 % of control | T/C (dose: 10.8 mg/kg/injection, schedule: Q01DX001 (ip), vehicle: saline): 150 % of control | T/C (dose: 10.8 mg/kg/injection, schedule: Q01DX001 (sc), vehicle: saline): 248 % of control and 250 % of control | T/C (dose: 10.8 mg/kg/injection, schedule: Q07DX003 (sc), vehicle: saline): 274 % of control and 275 % of control | T/C (dose: 14.0 mg/kg/injection, schedule: Q01DX001 (iv), vehicle: saline): 209 % of control | T/C (dose: 14.0 mg/kg/injection, schedule: Q01DX Z (oral), vehicle: saline): 194 % of control | T/C (dose: 14.0 mg/kg/injection, schedule: Q01DX Z (sc), vehicle: saline): 161 % of control and 273 % of control and 285 % of control | T/C (dose: 14.0 mg/kg/injection, schedule: Q01HX002 (ip), vehicle: saline): 315 % of control | T/C (dose: 14.0 mg/kg/injection, schedule: Q07DX Z (sc), vehicle: methylcellulose (MC)): 173 % of control | T/C (dose: 14.0 mg/kg/injection, schedule: Q07DX Z (sc), vehicle: other): 88 % of control | T/C (dose: 14.0 mg/kg/injection, schedule: Q07DX Z (sc), vehicle: saline): 200 % of control | T/C (dose: 14.0 mg/kg/injection, schedule: Q16DX002 (ip), vehicle: saline): 315 % of control | T/C (dose: 14.0 mg/kg/injection, schedule: Q## X Z (sc), vehicle: methylcellulose (MC)): 315 % of control | T/C (dose: 14.0 mg/kg/injection, schedule: Q## X Z (sc), vehicle: saline): 315 % of control | T/C (dose: 18.0 mg/kg/injection, schedule: Q01DX001 (ip), vehicle: saline): 181 % of control and 200 % of control | T/C (dose: 18.0 mg/kg/injection, schedule: Q01DX001 (sc), vehicle: saline): 310 % of control and 352 % of control | T/C (dose: 18.0 mg/kg/injection, schedule: Q07DX003 (sc), vehicle: saline): 645 % of control and 660 % of control | T/C (dose: 20.0 mg/kg/injection, schedule: Q01DX001 (sc), vehicle: methylcellulose (MC)): 240 % of control | T/C (dose: 20.0 mg/kg/injection, schedule: Q01DX001 (sc), vehicle: saline): 270 % of control | T/C (dose: 23.0 mg/kg/injection, schedule: Q01DX001 (ip), vehicle: saline): 480 % of control | T/C (dose: 23.0 mg/kg/injection, schedule: Q01DX001 (iv), vehicle: saline): 423 % of control | T/C (dose: 23.0 mg/kg/injection, schedule: Q01DX Z (oral), vehicle: saline): 157 % of control | T/C (dose: 23.0 mg/kg/injection, schedule: Q01HX002 (ip), vehicle: saline): 315 % of control | T/C (dose: 23.0 mg/kg/injection, schedule: Q07DX Z (sc), vehicle: methylcellulose (MC)): 184 % of control | T/C (dose: 23.0 mg/kg/injection, schedule: Q07DX Z (sc), vehicle: other): 555 % of control | T/C (dose: 23.0 mg/kg/injection, schedule: Q07DX Z (sc), vehicle: saline): 438 % of control and 631 % of control and 645 % of control | T/C (dose: 23.0 mg/kg/injection, schedule: Q16DX002 (ip), vehicle: saline): 315 % of control | T/C (dose: 23.0 mg/kg/injection, schedule: Q## X Z (sc), vehicle: saline): 284 % of control | T/C (dose: 24.0 mg/kg/injection, schedule: Q01DX009 (ip), vehicle: saline): 115 % of control | T/C (dose: 30.0 mg/kg/injection, schedule: Q01DX001 (ip), vehicle: saline): 218 % of control and 483 % of control | T/C (dose: 30.0 mg/kg/injection, schedule: Q01DX001 (sc), vehicle: saline): 410 % of control and 441 % of control | T/C (dose: 30.0 mg/kg/injection, schedule: Q07DX003 (sc), vehicle: saline): 295 % of control and 303 % of control | T/C (dose: 39.0 mg/kg/injection, schedule: Q01DX001 (ip), vehicle: saline): 309 % of control | T/C (dose: 39.0 mg/kg/injection, schedule: Q07DX Z (sc), vehicle: other): 294 % of control | T/C (dose: 39.0 mg/kg/injection, schedule: Q07DX Z (sc), vehicle: saline): 173 % of control and 315 % of control | T/C (dose: 40.0 mg/kg/injection, schedule: Q01DX001 (sc), vehicle: methylcellulose (MC)): 230 % of control | T/C (dose: 40.0 mg/kg/injection, schedule: Q01DX001 (sc), vehicle: saline): 195 % of control | T/C (dose: 48.0 mg/kg/injection, schedule: Q01DX001 (ip), vehicle: saline): 292 % of control | T/C (dose: 50.0 mg/kg/injection, schedule: Q01DX001 (ip), vehicle: saline): 475 % of control | T/C (dose: 50.0 mg/kg/injection, schedule: Q01DX001 (sc), vehicle: saline): 205 % of control | T/C (dose: 60.0 mg/kg/injection, schedule: Q01DX001 (ip), vehicle: saline): 124 % of control | T/C (dose: 65.0 mg/kg/injection, schedule: Q01DX001 (oral), vehicle: saline): 114 % of control | T/C (dose: 65.0 mg/kg/injection, schedule: Q07DX Z (sc), vehicle: other): 205 % of control | T/C (dose: 80.0 mg/kg/injection, schedule: Q01DX001 (sc), vehicle: methylcellulose (MC)): 110 % of control | T/C (dose: 80.0 mg/kg/injection, schedule: Q01DX001 (sc), vehicle: saline): 110 % of control | T/C (dose: 108.0 mg/kg/injection, schedule: Q01DX001 (oral), vehicle: saline): 104 % of control | T/C (dose: 120.0 mg/kg/injection, schedule: Q01DX001 (sc), vehicle: methylcellulose (MC)): 100 % of control | T/C (dose: 120.0 mg/kg/injection, schedule: Q01DX001 (sc), vehicle: saline): 105 % of control | T/C (dose: 180.0 mg/kg/injection, schedule: Q01DX001 (oral), vehicle: saline): 95 % of control
